# Assay results taken from US20040175691A1, “Use of the KCNQ2 and KCNQ3 genes for the discovery of agents useful in the treatment of neurological disorders” (priority 1998, published 2004).
# Where two headings read alike, the source gives them in different places.
# Assays:
# [1] = system: phasic sympathetic neurons; assay: Firing properties of phasic sympathetic neurons from the SCG; assay type: cell-based, rat; details: 10 μM
# Experimental: (§1) Method: Recordings of the M-current in sympathetic neurons in intact ganglia were performed at room temperature as described previously (Wang and McKinnon, 1995). The standard extracellular recording solution was: NaCl (133 mM, KCl (4.7 mM), NaH2PO4 (1.3 mM), NaHCO3 (16.3 mM), CaCl2 (2 mM), MgCl2 (1.2 mM) and glucose (1.4 g/liter), bubbled with 95% O2-5% CO2 to give pH 7.2-7.4.
# M-current [2] = target: T1, M-current (Rattus norvegicus, UniProt O88943+O88944); assay: Blockade of native M-current in SCG neurons (voltage clamp, intact ganglia); assay type: cell-based; details: native M-current, SCG neurons; mean±s.e.m.
# T1 construct: from tissue
# Experimental: as §1
# A. Blockade of M-current in SCG neurons by XE991. Holding potential was −30 mV and step potential was −50 mV for 1 second. The shift in holding current following drug application is due to the inhibition of M-current activated at the holding potential.
# Maximal block of native M-current was 93±2%. Data points are averages and error bars represent s.e.m.
# KCNQ2 = KCNQ2 (Homo sapiens, UniProt O43526, DEL417-446); assay: Blockade of KCNQ2 channels expressed in Xenopus oocytes; assay type: cell-based; design: Full-length KCNQ2 cDNAs were amplified from adult human brain cDNA; expressed in transfected cells; host or cells: Xenopus oocytes injected with cRNA; details: oocytes; mean±s.e.m.
# Experimental: Method: Full-length KCNQ2 cDNAs were amplified from adult human brain cDNA using the following primers ([…], […]) with the Expand Fidelity enzyme mixture (Boehringer Mannheim, Indianapolis). […] This region is also alternatively spliced in the KCNQ2 cDNA clone described by Biervert et al. (1998). Preparation, injection of cRNA and recording from oocytes was performed at room temperature as described previously (Dixon et al. 1996). The standard extracellular recording solution contained: 82 mM NaCl, 2 mM KCl, 1.8 mM CaCl2, 1 mM MgCl2, and 5 mM Na-HEPES (pH 7.6). Data collection and analysis were performed using pClamp software (Axon Instruments, Foster City, Calif.).
# IC50 values are all expressed in μM, mean±s.e.m.
# [3] = mammalian CNS; cited from earlier work
# rat hippocampal neurons = rat hippocampal neurons (Lampe & Brown 1991); cited from earlier work
# hKCNQ2 potassium channel = target: T2, hKCNQ2 potassium channel (Homo sapiens, UniProt O43526, DEL417-446); assay: Membrane potential-evoked fluorescence (FLIPR, DiBAC) in HEK 293E cells stably expressing hKCNQ2; assay type: cell-based; details: DiBAC-loaded HEK 293E hKCNQ2 cells, FIG. 6
# T2 construct: Full-length hKCNQ2 cDNAs were amplified from adult human brain cDNA; expressed in transfected cells; host or cells: 293 EBNA (HEK 293E) cells, episomal plasmid pm3AR-hKCNQ2-1, hygromycin B selection
# Experimental: The ability of KCNQ2 modulators to alter membrane potential was assessed using a fluorescence imaging plate reader (FLIPR). Cultured HEK 293E cells expressing hKCNQ2 channels are plated on poly-D-lysine-coated 96-well Costar microplates (#3603) at 300,000-750,000 cells/ml and allowed to reach confluence in DMEM (with 10% FBS and 250 ug/ml hygromycin B) at 37° C. and 5% CO2. After reaching confluence, growth medium is removed, replaced with a standard Hank's balanced salt solution containing 5 uM dibac(4)3, bis-oxonol (Molecular Probes # B-438) at 37° C. The cell plate is then placed in the recording chamber (equilibrated to 37° C.) of a fluorescence imaging plate reader (FLIPR; Molecular Devices) along with two drug plates (one containing standard Hank's balanced salt solution+dibac and the other containing standard Hank's balanced salt solution+dibac+test compound at various experimental concentrations).
# These cells were loaded with the voltage-sensitive fluorescent dye, DiBAC, that distributes across cell membranes in a voltage-dependent manner. As cells depolarize (become more positive inside), more dye enters the cells and an increase in fluorescence occurs.
# In FIG. 7, the relative effects of several M-current modulators on the flourescence of HEK 293E cells stably expressing the hKCNQ2 potassium channel is shown. These cells were loaded with the voltage-sensitive fluorescent dye, DiBAC, that distributes across cell membranes in a voltage-dependent manner. As cells depolarize, more dye enters the cells and an increase in fluorescence occurs. Conversely, as cells hyperpolarize (become more negative inside), more dye leaves the cells and a decrease in fluorescence occurs.
# KQT1 = target: T3, KQT1 (Homo sapiens, UniProt P51787); assay: Blockade of cloned KQT1 channel in oocytes; assay type: cell-based
# T3 construct: expressed in transfected cells; host or cells: oocytes (Xenopus)
# T3 sequence (P51787 whole entry): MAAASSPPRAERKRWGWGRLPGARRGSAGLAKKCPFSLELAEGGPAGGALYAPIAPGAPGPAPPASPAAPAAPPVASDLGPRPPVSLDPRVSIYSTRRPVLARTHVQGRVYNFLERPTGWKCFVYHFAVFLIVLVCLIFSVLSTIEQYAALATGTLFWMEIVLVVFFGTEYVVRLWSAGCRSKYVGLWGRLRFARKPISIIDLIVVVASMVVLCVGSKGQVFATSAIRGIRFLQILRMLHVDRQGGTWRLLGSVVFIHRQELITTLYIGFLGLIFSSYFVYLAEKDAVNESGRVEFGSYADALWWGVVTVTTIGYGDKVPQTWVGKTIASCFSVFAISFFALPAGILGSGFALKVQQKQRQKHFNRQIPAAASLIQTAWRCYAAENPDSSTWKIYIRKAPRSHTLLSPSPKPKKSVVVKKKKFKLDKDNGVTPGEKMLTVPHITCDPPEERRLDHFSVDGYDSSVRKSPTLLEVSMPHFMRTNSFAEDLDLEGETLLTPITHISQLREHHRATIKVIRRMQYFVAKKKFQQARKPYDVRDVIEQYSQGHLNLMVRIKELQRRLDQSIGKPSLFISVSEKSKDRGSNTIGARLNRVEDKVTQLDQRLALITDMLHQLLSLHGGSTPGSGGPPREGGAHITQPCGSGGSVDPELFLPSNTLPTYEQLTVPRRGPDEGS
# M-current [4] = target: T1, M-current; details: data adapted from Costa and Brown; read-out: IC50 for blockade of M-current; cited from earlier work
IC50 (M-current [2]) [µM],IC50 (KCNQ2) [µM],IC50 (KQT1) [µM],SMILES,Effect on firing properties of phasic neurons [1],"K+-stimulated release of acetylcholine, dopamine and glutamate [3]",Spike frequency adaptation (rat hippocampal neurons),Change in fluorescence (membrane depolarization) (hKCNQ2 potassium channel),IC50 (M-current [4]) [µM]
0.98 ± 0.15,0.71 ± 0.07,,"O=C1c2ccccc2C(Cc2ccncc2)(Cc2ccncc2)c2ccccc21 [XE991, 10,10-bis(4-pyridinylmethyl)-9(10H)-anthracenone]",converts the firing properties from phasic to tonic,,,,
,4.8 ± 0.6,8.9 ± 0.9,"O=C1N(c2ccccc2)c2ccccc2C1(Cc1ccncc1)Cc1ccncc1 [Linopirdine, 3,3-bis(4-pyridinylmethyl)-1-phenylindolin-2-one]",,"enhance K^+-stimulated release of acetylcholine, dopamine and glutamate",reduced spike frequency adaptation,time- and concentration-dependent increase in flourescence,7 ± 1.1
